Data from patent publication US12390505B2, “Composition for preventing or treating obesity or diabetes, comprising acanthopanax senticosus extract and garcinia cambogia extract or compound isolated therefrom” (KOREA RESEARCH INSTITUTE OF BIOSCIENCE AND BIOTECHNOLOGY, priority 2020, dated 2025).

Assays:
Type in all cases: in vivo, mouse
[1] = Example 12 HFD mice: oral glucose tolerance test; conditions: oral once daily 10 weeks, 50 mg/kg
Description: After adapting 8-week-old male C57b1/6 J mice to the basic diet (AIN-76A diet) for 2 weeks, and consuming Diet Induced Obesity Diet Formulas (D12451) 60 kcal % HFD diet for 2 weeks from 10 weeks of age, and then the test drug was administered when the average body weight reached 28 g or more. The animal breeding room environment of the mouse was maintained in a constant temperature (25±2° C.), constant humidity (50±5%) and a 12-hour photoperiod (light on 07:00˜19:00) in which the light and shade were controlled in an SPF environment. […] The test drug was dispersed in 0.5% Carboxymethyl cellulose (CMC) and administered in a volume of 0.2 ml, and the drug was administered orally by force into the stomach using a metal Zonde for oral administration.
[…] Blood to be used for blood glucose measurement was collected from the tail vein of a mouse, and blood glucose was measured using a serum analyzer (Accutrend plus GCTL Cobas Roche, Germany).
(§1) Results obtained from various experiments are recorded as mean±standard error of mean (SEM), and significance verification is determined using the student's T-test analysis method. The data were analyzed using one-way ANOVA to determine a statistically significant variance between each group for each final point measured, and statistical significance between each group was determined using the nonparametric Mann-Whitney test and Dunnett's multiple comparison test (IBM SPSS statistics version 19.0 statistic software, Inc, IBM, USA).

C/EBP-α mRNA = assay: Example 11 HFD mice: adipose tissue C/EBP-α mRNA analysis; conditions: oral once daily 10 weeks, 50 mg/kg
Description: After adapting 8-week-old male C57b1/6 J mice to the basic diet (AIN-76A diet) for 2 weeks, and consuming Diet Induced Obesity Diet Formulas (D12451) 60 kcal % HFD diet for 2 weeks from 10 weeks of age, and then the test drug was administered when the average body weight reached 28 g or more. The animal breeding room environment of the mouse was maintained in a constant temperature (25±2° C.), constant humidity (50±5%) and a 12-hour photoperiod (light on 07:00˜19:00) in which the light and shade were controlled in an SPF environment. […]
RNA was extracted from tissues using RNAsolB (Tel-Test) solution, and cDNA and real-time PCR analysis were performed using One-step SYBR Green PCR kit (AB science). […] Real time quantitative PCR was performed using the Applied Biosystems 7500 Real-Time PCR system (Applied Biosystems, USA).
as §1

[2] = Example 12 HFD mice: serum test; conditions: serum of HFD mice, oral once daily for 10 weeks; chiisanogenin 50 mg/kg; Garcinia cambogia extract 200 mg/kg; combination 50 + 150 mg/kg; Met 50 mg/kg
Description: The test drug was dispersed in 0.5% Carboxymethyl cellulose (CMC) and administered in a volume of 0.2 ml, and the drug was administered orally by force into the stomach using a metal Zonde for oral administration. Blood was collected by cardiac puncture to conduct a blood biochemical test after the end of the final experiment, and then plasma was separated by centrifugation at 3,000 rpm and 4° C. for 15 minutes within 30 minutes after blood collection, and then stored at −74° C. for blood chemistry and ELISA analysis. The contents of total cholesterol, high-density lipoprotein (HDL), low-density lipoprotein (LDL), triglyceride, FFA, glucose, and LDH, which are indicators of lipid content, were measured using an automated biochemical analyzer (Hitachi-720, Hitachi Medical, Japan). IGF-1 and Creatine were diluted in coating buffer, coated on microwells, and left overnight at 4° C. […] 100 μl of the TMB substrate was dispensed, left in the dark for 30 minutes, treated with 50 μl of the stop solution, and absorbance was measured at a wavelength of 450 nm using an ELISA reader. Results obtained from various experiments are recorded as mean±standard error of mean (SEM), and significance verification is determined using the student's T-test analysis method. […]

For `CN(C)C(=N)N=C(N)N` [Met, Metformin], the “Inhibition Rate (OGTT)” value [1] was 23%, the “OGTT (30 min-0 min, mg/dL)” value ([1]; glucose 1 g/kg) was 148.0 ± 18.50^ mg/dL and the “Inhibition Rate (C/EBP-α mRNA)” value (C/EBP-α mRNA) was 75%. For the same compound, the “C/EBP-α mRNA expression in adipose tissue” value (C/EBP-α mRNA; GAPDH control) was 1.153 ± 0.320 and the “Creatin (mg/dL), mean ± standard error” value [2] was 0.564 ± 0.011 mg/dL.
